Measured values as given in article PMC12168616, “Machine Learning‐Assisted Prediction and Generation of Antimicrobial Peptides” (Small Science, 2025).
In brackets after ≈: the same amount, converted by molar mass. Where two headings read alike, the source gives them in different places. Ends that are not written are not given here. Peptide text beside a SMILES is read from it.

Assays:
E. Faecalis ATCC19433 = type: cell-based, Enterococcus faecalis
Text: (§1) To evaluate the susceptibility of the different peptide sequences against clinical isolates of various bacterial pathogens, we used the minimum inhibitory concentration (MIC) assay. The MIC measures the efficacy of peptides in inhibiting bacterial growth. The specific MIC values of various peptides against Enterococcus […] ATCC19433, Staphylococcus aureus ATCC25923, Klebsiella pneumoniae ATCC43816, Acinetobacter baumannii AB5075, Pseudomonas aeruginosa PAO1, and Enterobacter species ATCC13048 were determined by measuring optical density at 600 nm (OD600 nm). […] The growth inhibition curves were used to estimate the MIC values.
(§2) Bacteria: The MIC was the lowest concentration of a drug, which inhibited the visible growth of a bacteria and could be determined by reading the absorption at 600 nm (OD600 nm) using a spectrophotometer. The peptides were subjected to antibacterial testing against gram‐positive and gram‐negative pathogens. All the ESKAPE pathogens (E. faecalis ATCC19433, S. aureus ATCC25923, K. pneumoniae ATCC43816, A. baumannii AB5075, P. aeruginosa PAO1, and E. aerogenes ATCC13048) were inoculated from nutrient agar plates to obtain a bacterial suspension by incubating the colony of bacteria in a flask containing 10 mL of Mueller Hinton broth II (MHB) at 37 °C for 24 h with gentle shaking (75 rpm). The bacterial suspensions were then diluted in MHB to 1 × 10^6 colony‐forming units (CFU) of bacteria mL^−1. Next, using serial dilutions in 96‐well plates, different concentrations of each peptide from 1.5–400 μM were prepared. 100 μL of peptide solutions at final concentration ranging between 0.75–200 μM were then added to a 96‐well plate containing 100 μL of diluted bacterial suspension. After 18–24 h incubation at 37 °C, the turbidity of the samples was observed, and the optical density of bacteria was measured using OD600 nm. All assays were performed in duplicates. The MICs were calculated as ≥90% inhibition of bacteria growth compared to the positive control wells.

P. Aeruginosa PAO1 = type: cell-based, Pseudomonas aeruginosa
Text: as §1, §2

K. Pneumoniae ATCC43816 = type: cell-based, Klebsiella pneumoniae
Text: as §1, §2

A. Baumannii AB5075 = type: cell-based, Acinetobacter baumannii
Text: as §1, §2

ESKAPE pathogens = experiment: MIC assay, bacteria, strain of the six not assignable or not specified; type: cell-based; conditions: one of the six ESKAPE strains, left to right order; MHB II, 18–24 h, 37 °C, OD600 nm, ≥90% inhibition, duplicates
Text: as §1, §2

S. Aureus ATCC25923 = type: cell-based, Staphylococcus aureus
Text: as §1, §2

E. Aerogenes ATCC13048 = type: cell-based, Enterobacter aerogenes
Text: as §1, §2

[1] = broth microdilution, Mueller Hinton broth II, peptide 0.75–200 μM, 18–24 h at 37 °C, OD600 nm, MIC = ≥90% inhibition, duplicates

Row | Molecule | MIC E. Faecalis ATCC19433 (E. Faecalis ATCC19433; ATCC19433) | MIC P. Aeruginosa PAO1 (P. Aeruginosa PAO1; PAO1) | MIC K. Pneumoniae ATCC43816 (K. Pneumoniae ATCC43816; ATCC43816) | MIC A. Baumannii AB5075 (A. Baumannii AB5075; AB5075) | MIC S. Aureus ATCC25923 (S. Aureus ATCC25923; ATCC25923) | MIC E. Aerogenes ATCC13048 (E. Aerogenes ATCC13048; ATCC13048) | further results
1 | AVLIAKLFHKLNKIK-NH2 [MLWH 15] | 200 µM | 200 µM | 200 µM | 100 µM | – | – | –
2 | KFITKFVKGLGLGTL-NH2 [MLWH 23] | – | 200 µM | 200 µM | 50 µM | – | – | –
3 | ALFLGGIWKKLPKAI-NH2 [MLWH02] | – | 100 µM | – | 100 µM | – | – | –
4 | PSKYAKIAIKFHKQI [MLWH61, peptide generated using algorithm, list 2] | – | – | – | – | – | – | MIC, Table S7, 4th value printed in the line (strain column cannot be told) (ESKAPE pathogens): 50 µM
5 | TKFGQKVIKLIAQFL-NH2 [MLWH 24] | 6 µM | 25 µM | 6 µM | 3 µM | 12.5 µM | 6 µM | –
6 | GPLMGAFIKKLLPKF-NH2 [MLWH 48] | 200 µM | 100 µM | 100 µM | 25 µM | – | 200 µM | –
7 | AIVKKGWIKILAWVF-NH2 [MLWH 36] | 100 µM | 200 µM | 100 µM | – | 6 µM | 100 µM | –
8 | LLGFTAFIKGQIKTA-NH2 [MLWH09] | 50 µM | 200 µM | 100 µM | 200 µM | 50 µM | 100 µM | –
9 | FVTITLKNFAKKKVG-NH2 [MLWH 28] | – | – | 200 µM | 200 µM | – | 200 µM | –
10 | GIKIIGIKVATFLKA-NH2 [MLWH03] | – | – | 200 µM | – | – | – | –
11 | FNKGKKFFFKFIKWV [MLWH73, peptide generated using algorithm, list 2] | – | – | – | – | – | – | MIC E. Faecalis ATCC19433 (E. Faecalis ATCC19433; [1]): 25 µM; MIC S. Aureus ATCC25923 (S. Aureus ATCC25923; [1]): 25 µM; MIC E. Aerogenes ATCC13048 (E. Aerogenes ATCC13048; [1]): 25 µM; MIC P. Aeruginosa PAO1 (P. Aeruginosa PAO1; [1]): 25 µM; MIC K. Pneumoniae ATCC43816 (K. Pneumoniae ATCC43816; [1]): 12.5 µM; MIC A. Baumannii AB5075 (A. Baumannii AB5075; [1]): 12.5 µM
12 | AWLKFKKKFGLFAKI-NH2 [MLWH11] | 25 µM | 25 µM | 12.5 µM | 12.5 µM | 100 µM | 12.5 µM | –
13 | GKIFGKLFLALIKMW-NH2 [MLWH06] | 12.5 µM | 200 µM | – | 25 µM | 25 µM | 200 µM | –
14 | TLVKAVAHIAKLLKF-NH2 [MLWH 22] | 100 µM | 200 µM | 50 µM | 12.5 µM | 100 µM | 200 µM | –
15 | RMFFKFKKKFKKWGQ [MLWH74, peptide generated using algorithm, list 2] | – | – | – | – | – | – | MIC E. Faecalis ATCC19433 (E. Faecalis ATCC19433; [1]): 200 µM; MIC S. Aureus ATCC25923 (S. Aureus ATCC25923; [1]): 50 µM; MIC E. Aerogenes ATCC13048 (E. Aerogenes ATCC13048; [1]): 100 µM; MIC P. Aeruginosa PAO1 (P. Aeruginosa PAO1; [1]): 200 µM; MIC K. Pneumoniae ATCC43816 (K. Pneumoniae ATCC43816; [1]): 25 µM; MIC A. Baumannii AB5075 (A. Baumannii AB5075; [1]): 25 µM
16 | VHKAFRKGSGAAILW-NH2 [MLWH 27] | – | – | 200 µM | 200 µM | – | – | –
17 | VQKLLKFKLKITAKA-NH2 [MLWH08] | 100 µM | 200 µM | 50 µM | 100 µM | – | 50 µM | –

Row | Molecule | MIC E. Faecalis ATCC19433 (E. Faecalis ATCC19433; ATCC19433) | MIC P. Aeruginosa PAO1 (P. Aeruginosa PAO1; PAO1) | MIC K. Pneumoniae ATCC43816 (K. Pneumoniae ATCC43816; ATCC43816) | MIC A. Baumannii AB5075 (A. Baumannii AB5075; AB5075) | MIC S. Aureus ATCC25923 (S. Aureus ATCC25923; ATCC25923) | MIC E. Aerogenes ATCC13048 (E. Aerogenes ATCC13048; ATCC13048) | further results
18 | GGAFFKLTQKIIKKA-NH2 [MLWH07] | – | 200 µM | 200 µM | 50 µM | – | – | –
19 | QGWIKIILPHIRYIK [MLWH57, peptide generated using algorithm, list 2] | – | – | – | – | – | – | MIC, Table S7, 4th value printed in the line (strain column cannot be told) (ESKAPE pathogens): 25 µM
20 | PKWHKNKMFKFKRKF [MLWH98, peptide generated using algorithm, list 2] | – | – | – | – | – | – | MIC, Table S7, 4th value printed in the line (strain column cannot be told) (ESKAPE pathogens): 200 µM
21 | KHVFAFLGGKLVKLK-NH2 [MLWH 35] | – | – | 200 µM | 50 µM | – | – | –
22 | IKVILKLVTNKGNGI-NH2 [MLWH 21] | 200 µM | – | 200 µM | 50 µM | – | 200 µM | –
23 | NFKIIKKVGIKLKGA-NH2 [MLWH 33] | – | – | – | 100 µM | – | – | –
24 | FLPLIILKFIGKLLP-NH2 [MLWH 19] | 1.5 µM | – | – | 200 µM | 3 µM | – | –
25 | KLKGLIFAWFKGIIA-NH2 [MLWH 45] | 25 µM | 200 µM | 100 µM | 25 µM | 100 µM | 25 µM | –
26 | LGVKPVFKFFKFFGK [MLWH51, peptide generated using algorithm, list 2] | – | – | – | – | – | – | MIC E. Faecalis ATCC19433 (E. Faecalis ATCC19433; [1]): 100 µM; MIC S. Aureus ATCC25923 (S. Aureus ATCC25923; [1]): 200 µM; MIC E. Aerogenes ATCC13048 (E. Aerogenes ATCC13048; [1]): 200 µM; MIC P. Aeruginosa PAO1 (P. Aeruginosa PAO1; [1]): 50 µM; MIC K. Pneumoniae ATCC43816 (K. Pneumoniae ATCC43816; [1]): 100 µM; MIC A. Baumannii AB5075 (A. Baumannii AB5075; [1]): 12.5 µM
27 | YFHLKKSFGKKLKRV-NH2 [MLWH 41] | – | – | – | 100 µM | – | – | –
28 | KGFAKMFRLLKKLAR-NH2 [MLWH 32] | 12.5 µM | 25 µM | 12.5 µM | 3 µM | 6 µM | 25 µM | –
29 | GLLTTGKKKLLGIIA-NH2 [MLWH 26] | – | – | – | 200 µM | – | – | –
30 | CC[C@H](C)[C@H](NC(=O)[C@H](CCC(N)=O)NC(=O)[C@@H]1CCCN1C(=O)[C@H](Cc1ccccc1)NC(=O)[C@H](CCCCN)NC(=O)[C@H](CCCCN)NC(=O)CNC(=O)[C@H](Cc1ccccc1)NC(=O)[C@@H](N)Cc1c[nH]c2ccccc12)C(=O)N[C@@H](C)C(=O)N[C@@H](CS)C(=O)N[C@@H](CCCCN)C(=O)N[C@@H](CCCNC(=N)N)C(=O)N[C@@H](CS)C(=O)N[C@@H](CS)C(N)=O [MLWH 43] (H-WFGKKFPQIACKRCC-NH2) | – | – | – | 25 µM (≈ 45.4 µg/mL) | – | – | –
31 | ALKAKLKFPGKFLFK-NH2 [MLWH 25] | – | 200 µM | 100 µM | 100 µM | – | 200 µM | –
32 | WFKAIAIGLGKFIAK-NH2 [MLWH 14] | 25 µM | – | 25 µM | 25 µM | 25 µM | 25 µM | –
33 | VIYSIGLRIFNKIRP [MLWH99, peptide generated using algorithm, list 2] | – | – | – | – | – | – | MIC, Table S7, 4th value printed in the line (strain column cannot be told) (ESKAPE pathogens): 200 µM
34 | GLWKIKLAFGKMFAK-NH2 [MLWH05] | 25 µM | 25 µM | 25 µM | 12.5 µM | 100 µM | 25 µM | –
